In one experiment the test system is transglutaminase (TGase). In words: Measurement of TG (TGase inhibitory activity, monodansyl cadaverine / N,N-dimethylcasein fluorescence, FDSS 3000). The class given is biochemical. In outline: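 Compound (1 μL of 10 mM stock) added to 0.1 mL reaction: 100 mM HEPES-NaOH pH 7.5, 1 mM CaCl2, 20 μM monodansyl cadaverine, 0.05 mg/mL N,N-dimethylcasein, 5 μg/mL TGase. Rate of fluorescence change at 340 nm measured; DMSO control set to 100; TG50 is the concentration halving activity.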

The test system of experiment [1] is Truncated N-terminal huntington 150 Q-EGFP-Neuron 2a cells. The experiment is described as follows: Measurement of x-Fold (polyglutamine aggregation inhibitory activity). The class given is cell-based. Here is the method:
In the present invention, the polyglutamine aggregation inhibitory activity (x-Fold) can be measured, for example, by the method described in the Example.
The number of the aggregated cells, and the total number of cells were counted by Array Scan V T1 (manufactured by Cellomics, Pittuburg, USA), and the ratio of the aggregated cells to the total number of cells was determined (x-Fold). […]

The mark [2] stands for this setting: TGase activity with compound (10 mM, 1 μL in 0.1 ml enzyme reaction solution), DMSO control taken as 100.
Where [3] appears, read: ratio of aggregated cells to total number of cells, compound 20 μM, 20 hr, almost 1 without compound, smaller = stronger inhibition.
Setting [4] is: TGase inhibitory activity value, Table 1.
Where [5] appears, read: polyglutamine aggregation inhibitory activity, Table 1.

Each structure is given as a SMILES string.

For `COc1ccc(C(OB(c2ccccc2)c2ccc(COCc3ccc(B(OC(c4ccc(OC)cc4)c4ccccn4)c4ccccc4)cc3)cc2)c2ccccn2)cc1` (stereo not drawn) [Example 126, bis(phenyl 2-pyridyl-4-methoxyphenylmethoxyborylbenzyl)ether], the “TGase activity remaining (% of DMSO control = 100)” value in the experiment with transglutaminase (TGase) (setting [2]) is recorded as 81. Further, in experiment [1] (setting [3]), the x-Fold was determined as 1.04.

For `OB(c1ccccc1)c1ccc2sc3ccc(B(O)c4ccccc4)cc3c2c1` [Example 387, 2,8-di(phenylhydroxyboryl)dibenzothiophene], the “TGase activity remaining (% of DMSO control = 100)” value with transglutaminase (TGase) (setting [2]) and with transglutaminase (TGase) (setting [4]) was 96 each time. Besides, the x-Fold in experiment [1] (setting [5]) and in experiment [1] (setting [3]) was 0.73 each time.

Regarding `N#Cc1ccc(B(O)c2ccc(C#N)cc2)cc1` [Example 305, 4,4′-di(cyano-phenyl)borinic acid], the “TGase activity remaining (% of DMSO control = 100)” value is 94 in the experiment with transglutaminase (TGase) (setting [2]) and 94 in the experiment with transglutaminase (TGase) (TGase inhibitory activity value, Table 1, listed as 6095). The x-Fold in experiment [1] (polyglutamine aggregation inhibitory activity, Table 1, listed as 6095) is recorded as 0.98; in experiment [1] (setting [3]) it was 0.98.

Consider `O=C(O)CC1[NH2+][B-](c2ccccc2)(c2ccccc2)OC1=O` (stereo not drawn) [Example 257], for which the “TGase activity remaining (% of DMSO control = 100)” value in the experiment with transglutaminase (TGase) (setting [2]) and in the experiment on transglutaminase (TGase) (setting [4]) was 103 throughout. Moreover, the x-Fold in experiment [1] (setting [5]) and in experiment [1] (setting [3]) was 0.98 throughout.

As for `CN(C)CCOB(c1ccc(F)c(Cl)c1)c1ccc(F)c(Cl)c1` [Example 78, 2-dimethylaminoethyl bis(3-chloro-4-fluorophenyl)borinate], the “TGase activity remaining (% of DMSO control = 100)” value in the experiment on transglutaminase (TGase) (setting [2]) and with transglutaminase (TGase) (setting [4]) was 104 in each case. In addition, the x-Fold in experiment [1] (setting [5]) and in experiment [1] (setting [3]) was 1.02 each time.

On to `Cc1cc(B(O)c2ccc(COCc3ccc(B(O)c4ccc(Cl)c(C)c4)cc3)cc2)ccc1Cl` [Example 139, bis(4-chloro-3-methylphenylhydroxyboryl 4-benzyl)ether], for which the “TGase activity remaining (% of DMSO control = 100)” value in the experiment on transglutaminase (TGase) (setting [2]) is on record as 122; with transglutaminase (TGase) (TGase inhibitory activity value, Table 1, listed as 611) it was 122. Besides, the x-Fold in experiment [1] (polyglutamine aggregation inhibitory activity, Table 1, listed as 611) was determined as 0.88; in experiment [1] (setting [3]) it was 0.88.

`NCC(=O)OB(c1ccccc1)c1ccccc1` [Example 254, diphenyl(glycinate-O,N)borane]: the “TGase activity remaining (% of DMSO control = 100)” value in the experiment with transglutaminase (TGase) (setting [2]) and in the experiment with transglutaminase (TGase) (setting [4]) was 101 in each case. The x-Fold in experiment [1] (setting [5]) and in experiment [1] (setting [3]) was 0.95 each time.

For `OB(c1cc(Cl)ccc1F)c1cc(Cl)ccc1F` [Example 98, bis(3-chloro-6-fluorophenyl)borinic acid], the “TGase activity remaining (% of DMSO control = 100)” value with transglutaminase (TGase) (setting [2]) and in the experiment with transglutaminase (TGase) (setting [4]) was 111 each time. In addition, the x-Fold in experiment [1] (setting [5]) and in experiment [1] (setting [3]) was 0.95 each time.

Turning to `Cc1ccc(B(O)c2ccc(COCc3cccc(B(O)c4ccc(C)c(Cl)c4)c3)cc2)cc1Cl` [Example 341, (3-(3-chloro-4-methylphenylhydroxyboryl)benzyl)(4-(3-chloro-4-methylphenylhydroxyboryl)benzyl)ether], in the experiment with transglutaminase (TGase) (setting [2]), the “TGase activity remaining (% of DMSO control = 100)” value came out at 107. The x-Fold in experiment [1] (setting [3]) is given as 1.04.

With `NCC(OB(c1ccc(F)c(F)c1)c1ccc(F)c(F)c1)c1ccccc1` (stereo not drawn) [Example 88, 2-amino-1-phenylethyl bis(3,4-difluorophenyl)borinate], the “TGase activity remaining (% of DMSO control = 100)” value with transglutaminase (TGase) (setting [2]) and in the experiment on transglutaminase (TGase) (setting [4]) was 82 in each case. Besides, the x-Fold in experiment [1] (setting [5]) and in experiment [1] (setting [3]) was 0.83 each time.

Regarding `CCCCB(CCCC)OC(=O)C(C)N` (stereo not drawn) [Example 159, dibutyl(alanine-O,N)borane], the “TGase activity remaining (% of DMSO control = 100)” value in the experiment with transglutaminase (TGase) (setting [2]) and in the experiment on transglutaminase (TGase) (setting [4]) was 102 in each case. Besides, the x-Fold in experiment [1] (setting [5]) and in experiment [1] (setting [3]) was 0.96 throughout.

Turning to `Cc1ccc(Cl)cc1B(O)c1cc(Cl)ccc1C` [Example 171, di(3-chloro-6-methylphenyl)borinic acid], the “TGase activity remaining (% of DMSO control = 100)” value in the experiment with transglutaminase (TGase) (setting [2]) worked out at 98. For the same compound, the x-Fold in experiment [1] (setting [3]) was found to be 0.71.

For the origin of these results see patent publication US8853424B2 (Japan Science and Technology Agency, priority 2008, dated 2014).
